pIC50: −log10 of the molar value. Active and inactive are the calls of the source. No cut-off for these calls is given here.
Columns and labels:
HeLa [1] = assay: Cytotoxicity against human HeLa cells after 48 hrs by MTT assay; type: functional, cell-based
NCI-H460 = assay: Cytotoxicity against human NCI-H460 cells after 48 hrs by MTT assay; type: functional, cell-based; conditions: NCI-H460, 48 h
MGC-803 = assay: Cytotoxicity against human MGC803 cells after 48 hrs by MTT assay; type: functional, cell-based; conditions: MGC-803, 48 h
[2] = Cytotoxicity against human HL7702 cells after 48 hrs by MTT assay; type: functional, cell-based; conditions: L02, 48 h
HeLa [3] = assay: Induction of apoptosis in human HeLa cells assessed as chromatin condensation at 15 uM after 12 to 24 hrs by acridine orange/ethidium bromide staining-based assay; type: functional, cell-based
HeLa [4] = assay: Induction of apoptosis in human HeLa cells assessed as chromatin fragmentation at 15 uM after 12 to 24 hrs by acridine orange/ethidium bromide staining-based assay relative to control; type: functional, cell-based
HeLa [5] = assay: Induction of apoptosis in human HeLa cells at 15 uM after 12 to 24 hrs by Hoechst 33258 staining-based assay relative to control; type: functional, cell-based
HeLa [6] = assay: Induction of apoptosis in human HeLa cells assessed as change in mitochondrial membrane potential at 15 uM after 12 to 24 hrs by JC-1 staining-based assay relative to control; type: functional, cell-based
HeLa [7] = assay: Induction of apoptosis in human HeLa cells assessed as DNA fragmentation at 15 uM after 12 to 24 hrs by TUNEL assay relative to control; type: functional, cell-based
HeLa [8] = assay: Induction of apoptosis in human HeLa cells assessed as early apoptotic cells at 10 uM after 12 hrs by Anexin-V-FITC/propidium iodide staining-based flow cytometry (reference value: 1.40%); type: functional
HeLa [9] = assay: Induction of apoptosis in human HeLa cells assessed as early apoptotic cells at 15 uM after 12 hrs by Anexin-V-FITC/propidium iodide staining-based flow cytometry (reference value: 1.40%); type: functional
HeLa [10] = assay: Induction of apoptosis in human HeLa cells assessed as late apoptotic cells at 10 uM after 12 hrs by Anexin-V-FITC/propidium iodide staining-based flow cytometry (reference value: 0.04%); type: functional
HeLa [11] = assay: Induction of apoptosis in human HeLa cells assessed as late apoptotic cells at 15 uM after 12 hrs by Anexin-V-FITC/propidium iodide staining-based flow cytometry (reference value: 0.04%); type: functional
HeLa [12] = assay: Induction of apoptosis in human HeLa cells assessed as dead cells at 10 uM after 12 hrs by Anexin-V-FITC/propidium iodide staining-based flow cytometry (reference value: 1.40%); type: functional
HeLa [13] = assay: Induction of apoptosis in human HeLa cells assessed as dead cells at 15 uM after 12 hrs by Anexin-V-FITC/propidium iodide staining-based flow cytometry (reference value: 1.40%); type: functional
HeLa [14] = assay: Induction of apoptosis in human HeLa cells assessed as viable cells at 10 uM after 12 hrs by Anexin-V-FITC/propidium iodide staining-based flow cytometry (reference value: 97.2%); type: functional; conditions: read-out: Activity
HeLa [15] = assay: Induction of apoptosis in human HeLa cells assessed as viable cells at 15 uM after 12 hrs by Anexin-V-FITC/propidium iodide staining-based flow cytometry (reference value: 97.2%); type: functional; conditions: read-out: Activity
HeLa [16] = assay: Induction of apoptosis in human HeLa cells assessed as apoptosis ratio at 10 uM after 12 hrs by Anexin-V-FITC/propidium iodide staining-based flow cytometry (reference value: 1.44%); type: functional
HeLa [17] = assay: Induction of apoptosis in human HeLa cells assessed as apoptosis ratio at 15 uM after 12 hrs by Anexin-V-FITC/propidium iodide staining-based flow cytometry (reference value: 1.44%); type: functional
HeLa [18] = assay: Cell cycle arrest in human HeLa cells assessed as accumulation at G1 phase at 10 uM after 48 hrs by propidium iodide stainin-based flow cytometry (reference value: 31.44%); type: functional
HeLa [19] = assay: Cell cycle arrest in human HeLa cells assessed as accumulation at G1 phase at 15 uM after 48 hrs by propidium iodide stainin-based flow cytometry (reference value: 31.44%); type: functional
HeLa [20] = assay: Cell cycle arrest in human HeLa cells assessed as accumulation at G2 phase at 10 uM after 48 hrs by propidium iodide stainin-based flow cytometry (reference value: 5.84%); type: functional
HeLa [21] = assay: Cell cycle arrest in human HeLa cells assessed as accumulation at G2 phase at 15 uM after 48 hrs by propidium iodide stainin-based flow cytometry (reference value: 5.84%); type: functional
HeLa [22] = assay: Cell cycle arrest in human HeLa cells assessed as accumulation at S phase at 10 uM after 48 hrs by propidium iodide stainin-based flow cytometry (reference value: 67.72%); type: functional
HeLa [23] = assay: Cell cycle arrest in human HeLa cells assessed as accumulation at S phase at 15 uM after 48 hrs by propidium iodide stainin-based flow cytometry (reference value: 67.72%); type: functional
HeLa [24] = assay: Induction of cytochrome C release in human HeLa cells assessed as karyopyknosis at 10 to 15 uM after 12 hrs by fluorescence microscopy relative to control; type: functional, cell-based
HeLa [25] = assay: Induction of cytochrome C release in human HeLa cells assessed as nuclei conglomeration at 10 to 15 uM after 12 hrs by fluorescence microscopy relative to control; type: functional, cell-based
HeLa [26] = assay: Induction of apoptosis in human HeLa cells assessed as ROS generation at 10 to 15 uM after 12 hrs by DCF-Da staining-based fluorescence microscopy relative to control; type: functional, cell-based
HeLa [27] = assay: Induction of apoptosis in human HeLa cells assessed as caspase-3 activation by spectrophotometry relative to control; type: functional, cell-based; conditions: TDE = time-dependent effect
HeLa [28] = assay: Induction of apoptosis in human HeLa cells assessed as caspase-9 activation by spectrophotometry relative to control relative to control; type: functional, cell-based; conditions: TDE = time-dependent effect
HeLa [29] = assay: Induction of apoptosis in human HeLa cells assessed as increase in caspase-3 expression at 10 to 15 uM by Western blotting analysis relative to control; type: functional, cell-based
HeLa [30] = assay: Induction of apoptosis in human HeLa cells assessed as increase in caspase-8 expression at 10 to 15 uM by Western blotting analysis relative to control; type: functional, cell-based
HeLa [31] = assay: Induction of apoptosis in human HeLa cells assessed as increase in cytochrome c expression at 10 to 15 uM by Western blotting analysis relative to control; type: functional, cell-based
HeLa [32] = assay: Induction of apoptosis in human HeLa cells assessed as increase in Bax expression at 10 to 15 uM by Western blotting analysis relative to control; type: functional, cell-based
HeLa [33] = assay: Induction of apoptosis in human HeLa cells assessed as reduction in Bcl2 expression by Western blotting analysis relative to control; type: functional, cell-based

In the case of `CC(C)c1ccc2c(c1)C(=O)C[C@H]1[C@](C)(C(=O)N[C@@H](Cc3ccccc3)C(=O)Nc3ccccc3Cl)CCC[C@]21C`, the pIC50 (HeLa [1]) was 5.11, the pIC50 (NCI-H460) was 4.61 and the pIC50 (MGC-803) was 5.01. The pIC50 [2] was 4.27, the Activity (HeLa [3]) was “Active” and the Activity (HeLa [4]) was “Active”. The Activity (HeLa [5]) was “Active”, the Activity (HeLa [6]) was “Active” and the Activity (HeLa [7]) was “Active”. The Activity (HeLa [8]) was 13.6%, the Activity (HeLa [9]) was 21.8% and the Activity (HeLa [10]) was 6.93%. The Activity (HeLa [11]) was 13.7%, the Activity (HeLa [12]) was 0.677% and the Activity (HeLa [13]) was 0.612%. For the same compound, the viability at 10 µM (HeLa [14]) was 78.8%, the viability at 15 µM (HeLa [15]) was 64% and the Activity (HeLa [16]) was 20.53%. The Activity (HeLa [17]) was 34.5%, the Activity (HeLa [18]) was 27.79% and the Activity (HeLa [19]) was 15.49%. The Activity (HeLa [20]) was 4.8%, the Activity (HeLa [21]) was 1.47% and the Activity (HeLa [22]) was 67.41%. The Activity (HeLa [23]) was 83.05%, the Activity (HeLa [24]) was “Active” and the Activity (HeLa [25]) was “Active”. The Activity (HeLa [26]) was “Active”, the Activity (HeLa [27]) was “tde” and the Activity (HeLa [28]) was “tde”. For the same compound, the Activity (HeLa [29]) was “Active”, the Activity (HeLa [30]) was “Active” and the Activity (HeLa [31]) was “Active”. For the same compound, the Activity (HeLa [32]) was “Active” and the Activity (HeLa [33]) was “Dose-dependent effect”.

Source: ChEMBL document CHEMBL3352110, “Design, synthesis and in vitro evaluation of novel dehydroabietic acid derivatives containing a dipeptide moiety as potential anticancer agents” (Eur J Med Chem, 2015)
